In patent publication US20150246141A1, “DIAGNOSTIC AGENTS WITH ENHANCED SENSITIVITY/SPECIFICITY” (BEN-GURION UNIVERSITY OF THE NEGEV RESEARCH AND DEVELOPMENT …, priority 2012, published 2015):

Assays:
[1] = system: LS-174T human colorectal adenocarcinoma; assay: Murine orthotopic colorectal tumor model LS-174T, intraluminal instillation, imaging of excised colon and organs; format: in vivo, female athymic nude mice; details: polymer applied intraluminally
Description: The murine orthotopic colorectal tumor model LS-174T human colorectal adenocarcinoma cells (3×10^7 cells) were injected (600 μL) into the descending colonic wall of 13 anesthetized, female athymic nude mice, after an over night fast. […] Histopathological examination was performed on paraffin fixed colonic tissue specimens, after an H&E stain and verified that the carcinoma infiltrated within the mucosa, submucosa, and muscular layer
The mice were sacrificed 3 hrs post treatment, their colons exteriorized, separated, cut open, spread on a transparent film with the mucosal aspects upwards, and imaged by the Odyssey® Infrared Imaging System (Li-Cor Biosciences, Lincoln, Nebr., USA.) with excitation wavelength of 780 nm and emission wavelength of 800 nm.

HT29 tumors = assay: Intraluminal administration to mouse HT-29 tumor models, NIR imaging; format: in vivo, female athymic nude mice
Description: 20 min later the colon was washed extensively with PBS and then were allowed to recover for 3 h. Then, the mice were sacrificed and the colons were removed. Each colon was spread on a clear film, and imaging was performed using the Odyssey® Infrared Imaging System (Li-Cor Biosciences, Lincoln, Nebr., USA.), with excitation wavelength of 780 nm and emission wavelength of 800 nm Results:
FIGS. 4C and 4D provide results of similarly treated animals, 2 hours post-administration.

[2] = system: cancerous colorectal tissue; assay: In situ labeling of surgically excised human colorectal cancer tissue specimens; details: PBS, 0.2 mg/ml; 20 minutes incubation, washed three times
Description: Polymer solution was dropped onto fresh surgical tissue specimens that were received 15 minutes after surgical excision. After 20 minutes of incubation with the polymeric probe, tissues were washed three times with a large volume of PBS. Tissues were then imaged immediately using the Odyssey® Infrared Imaging System (Li-Cor Biosciences, Lincoln, Nebr., USA.) with excitation wavelength of 780 nm and emission wavelength of 800 nm.

LS174T tumors = assay: Intraluminal (intracolonic) administration to mice bearing rectal LS174T tumors, NIR imaging of excised colon; format: in vivo, female athymic nude mice
Description: […] Then, the mice were sacrificed and the colons were removed. Each colon was spread on a clear film, and imaging was performed using the Odyssey® Infrared Imaging System (Li-Cor Biosciences, Lincoln, Nebr., USA.), with excitation wavelength of 780 nm and emission wavelength of 800 nm Results:

[3] = immediately post administration of 0.1 mg/ml (200 μg)

In the case of “HPMA copolymer bearing IR783-S-Ph-COOH [P-(AP-IR783)]”, the “accumulation in cancerous tissue” value [1] is reported as “Selective accumulation”, the “staining of region 4 (no tumors macroscopically; tumors in the submucosa)” value (HT29 tumors; [3]) is reported as “stained intensely” and the “staining of surface exposed regions (boxes 2, 3)” value (HT29 tumors; [3]) is reported as “stained intensely”. For the same substance, the “accumulation in cancerous tissue” value (HT29 tumors; polymer applied intraluminally, HT-29 tumor model) was “Selective accumulation”, the “binding to near healthy tissue” value [2] was “very low binding” and the “staining at cancerous region in the tissue (polyp and tumor)” value [2] was “markedly intense staining”. For the same substance, the “background staining in control mice without tumors” value (LS174T tumors; 40 μg per mouse (0.2 mg/ml), images taken at 4 hours following washing) was “very little background staining”, the “staining in samples taken from mice having tumors” value (LS174T tumors; 40 μg per mouse (0.2 mg/ml), tumors verified by pathologic evaluation) was “clear staining was evident” and the tumor associated-vasculature staining (LS174T tumors; intraluminal application) was “staining was evident”. For the same substance, the “accumulation in cancerous tissue” value (LS174T tumors; polymer applied intraluminally, LS174T tumor model) was “Selective accumulation”.
